Compound in assay [1]: NC(=O)CCCCC1CCSS1 [lipoamide]
Description: thermal stability z-score vs DMSO; higher = more thermally stabilized by treatment. The note with it: HeLa, lipoamide concentration 100 µM. Here is the method:
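Cellular thermal proteome profiling in HeLa cells. Cells were treated with 100 µM lipoamide for 1 h, with or without 1 mM arsenate for a further 1 h, then heated to ten temperatures (37-66.3 °C), and soluble protein was quantified by TMT mass spectrometry relative to 0.1% DMSO controls. The thermal stability score (sum of log2 fold changes minus the abundance score) was transformed to a z-score; mean of n = 3 experiments.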

Compound in assay [2]: O=[As]([O-])(O)O.[K+] [potassium arsenate]
The assay is described as above. The note with it: HeLa; arsenate concentration 1 mM. Here is the method: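 Cellular thermal proteome profiling in HeLa cells treated with 1 mM arsenate for 1 h (DMSO pretreatment), heated to ten temperatures (37-66.3 °C). Soluble protein was quantified by TMT mass spectrometry relative to DMSO controls; the thermal stability score was transformed to a z-score; mean of n = 3 experiments.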

Where [3] appears, read: arsenate co-treatment: 1 mM arsenate 1 h.
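Further: each temperature applied for 3 min, abundance score taken as mean log2 fold change at the two lowest temperatures, z-score obtained by mean subtraction and division by SD.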

Chain of UniProt Q7L5Y9 (Q7L5Y9 whole entry): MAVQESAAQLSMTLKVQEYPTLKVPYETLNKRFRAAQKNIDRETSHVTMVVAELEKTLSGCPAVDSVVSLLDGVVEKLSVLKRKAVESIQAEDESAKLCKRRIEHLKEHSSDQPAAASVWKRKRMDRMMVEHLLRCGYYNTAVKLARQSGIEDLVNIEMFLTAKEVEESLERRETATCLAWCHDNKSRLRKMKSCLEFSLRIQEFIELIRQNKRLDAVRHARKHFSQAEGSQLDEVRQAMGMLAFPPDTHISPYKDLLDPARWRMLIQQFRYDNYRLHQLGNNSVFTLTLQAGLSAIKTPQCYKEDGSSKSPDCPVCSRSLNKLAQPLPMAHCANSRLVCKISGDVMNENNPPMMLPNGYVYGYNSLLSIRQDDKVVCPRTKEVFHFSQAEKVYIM
Chain of UniProt Q6ZVM7 (Q6ZVM7 whole entry): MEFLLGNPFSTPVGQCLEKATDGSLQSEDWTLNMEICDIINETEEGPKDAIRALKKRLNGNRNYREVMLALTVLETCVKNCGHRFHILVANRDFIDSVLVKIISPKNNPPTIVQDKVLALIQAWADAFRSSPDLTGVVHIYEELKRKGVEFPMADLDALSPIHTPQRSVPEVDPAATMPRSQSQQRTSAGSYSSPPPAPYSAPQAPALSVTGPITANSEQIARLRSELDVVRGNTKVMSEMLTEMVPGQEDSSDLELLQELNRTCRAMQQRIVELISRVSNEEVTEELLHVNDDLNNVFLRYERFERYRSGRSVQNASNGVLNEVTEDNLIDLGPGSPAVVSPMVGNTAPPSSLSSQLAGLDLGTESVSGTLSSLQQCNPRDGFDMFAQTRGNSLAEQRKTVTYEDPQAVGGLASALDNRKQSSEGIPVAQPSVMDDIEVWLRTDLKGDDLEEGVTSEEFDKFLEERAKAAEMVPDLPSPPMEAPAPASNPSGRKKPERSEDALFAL
Chain of UniProt P08670 (P08670 whole entry): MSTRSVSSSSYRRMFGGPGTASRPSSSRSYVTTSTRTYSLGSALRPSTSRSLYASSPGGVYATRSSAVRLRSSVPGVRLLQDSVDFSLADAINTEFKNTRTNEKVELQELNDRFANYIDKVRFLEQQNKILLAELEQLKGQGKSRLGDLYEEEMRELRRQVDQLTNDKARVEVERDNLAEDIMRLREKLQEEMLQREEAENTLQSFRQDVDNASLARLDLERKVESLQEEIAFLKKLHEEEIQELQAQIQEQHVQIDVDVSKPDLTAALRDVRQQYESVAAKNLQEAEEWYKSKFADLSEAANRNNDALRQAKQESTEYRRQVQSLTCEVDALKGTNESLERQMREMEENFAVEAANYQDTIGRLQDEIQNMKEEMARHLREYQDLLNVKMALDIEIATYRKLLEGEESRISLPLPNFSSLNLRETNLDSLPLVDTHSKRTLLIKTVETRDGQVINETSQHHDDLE
Chain of UniProt P07203 (P07203 whole entry): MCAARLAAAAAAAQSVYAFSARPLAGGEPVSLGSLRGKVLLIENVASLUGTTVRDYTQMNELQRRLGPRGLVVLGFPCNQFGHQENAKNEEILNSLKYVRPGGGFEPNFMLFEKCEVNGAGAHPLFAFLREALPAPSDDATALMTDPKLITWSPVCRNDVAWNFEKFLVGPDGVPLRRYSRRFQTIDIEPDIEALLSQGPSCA
Chain of UniProt O95819 (O95819 whole entry, looked up): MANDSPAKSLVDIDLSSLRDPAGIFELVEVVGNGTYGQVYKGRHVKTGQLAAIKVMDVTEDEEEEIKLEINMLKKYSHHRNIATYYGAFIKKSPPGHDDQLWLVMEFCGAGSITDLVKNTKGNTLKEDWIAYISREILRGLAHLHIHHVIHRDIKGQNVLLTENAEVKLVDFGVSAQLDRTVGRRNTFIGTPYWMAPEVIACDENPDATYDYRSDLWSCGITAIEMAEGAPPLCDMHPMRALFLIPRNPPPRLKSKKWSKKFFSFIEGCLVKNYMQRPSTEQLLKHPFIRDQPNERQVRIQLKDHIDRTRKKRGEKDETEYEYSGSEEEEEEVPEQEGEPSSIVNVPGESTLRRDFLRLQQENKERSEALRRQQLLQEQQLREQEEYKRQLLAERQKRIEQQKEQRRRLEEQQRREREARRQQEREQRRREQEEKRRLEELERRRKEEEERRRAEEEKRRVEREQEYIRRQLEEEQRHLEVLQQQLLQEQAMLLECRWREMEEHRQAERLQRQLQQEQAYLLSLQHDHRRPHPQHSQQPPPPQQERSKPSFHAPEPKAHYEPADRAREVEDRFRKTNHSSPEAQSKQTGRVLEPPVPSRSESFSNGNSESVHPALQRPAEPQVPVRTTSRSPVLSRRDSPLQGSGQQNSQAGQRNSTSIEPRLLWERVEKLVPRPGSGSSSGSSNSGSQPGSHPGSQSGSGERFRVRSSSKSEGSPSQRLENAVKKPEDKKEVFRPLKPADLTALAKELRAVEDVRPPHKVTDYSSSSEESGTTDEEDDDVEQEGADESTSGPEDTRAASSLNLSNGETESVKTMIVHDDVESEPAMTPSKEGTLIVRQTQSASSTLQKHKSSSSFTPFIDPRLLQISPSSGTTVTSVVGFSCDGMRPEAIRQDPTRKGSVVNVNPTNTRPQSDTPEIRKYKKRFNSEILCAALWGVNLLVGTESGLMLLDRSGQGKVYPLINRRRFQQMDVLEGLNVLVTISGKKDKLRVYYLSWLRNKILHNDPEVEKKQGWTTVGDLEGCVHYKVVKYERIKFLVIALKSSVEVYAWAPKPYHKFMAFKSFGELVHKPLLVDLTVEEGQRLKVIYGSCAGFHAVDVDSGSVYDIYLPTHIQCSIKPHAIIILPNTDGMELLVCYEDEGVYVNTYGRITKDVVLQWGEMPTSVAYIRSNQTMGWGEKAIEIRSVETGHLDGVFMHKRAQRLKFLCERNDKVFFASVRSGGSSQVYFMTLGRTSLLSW
Chain of UniProt P27797 (P27797 whole entry): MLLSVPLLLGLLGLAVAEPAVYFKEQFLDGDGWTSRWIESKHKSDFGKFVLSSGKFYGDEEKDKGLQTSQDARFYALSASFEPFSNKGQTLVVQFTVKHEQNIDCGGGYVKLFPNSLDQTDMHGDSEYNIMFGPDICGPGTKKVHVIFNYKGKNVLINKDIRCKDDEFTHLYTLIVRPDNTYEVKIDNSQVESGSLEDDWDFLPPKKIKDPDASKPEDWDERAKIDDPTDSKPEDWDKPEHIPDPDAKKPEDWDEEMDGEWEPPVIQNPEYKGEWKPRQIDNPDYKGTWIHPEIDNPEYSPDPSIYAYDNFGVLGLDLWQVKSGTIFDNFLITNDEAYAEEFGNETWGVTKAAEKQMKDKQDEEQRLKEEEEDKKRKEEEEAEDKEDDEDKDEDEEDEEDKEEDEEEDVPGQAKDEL
Chain of UniProt O75915 (O75915 whole entry): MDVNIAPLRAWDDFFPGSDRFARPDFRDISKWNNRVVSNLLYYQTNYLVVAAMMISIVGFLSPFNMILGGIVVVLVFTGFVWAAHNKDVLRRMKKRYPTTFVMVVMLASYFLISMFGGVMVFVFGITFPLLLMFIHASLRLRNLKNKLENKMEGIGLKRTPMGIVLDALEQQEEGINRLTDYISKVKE
Chain of UniProt Q9C0F1 (Q9C0F1 whole entry): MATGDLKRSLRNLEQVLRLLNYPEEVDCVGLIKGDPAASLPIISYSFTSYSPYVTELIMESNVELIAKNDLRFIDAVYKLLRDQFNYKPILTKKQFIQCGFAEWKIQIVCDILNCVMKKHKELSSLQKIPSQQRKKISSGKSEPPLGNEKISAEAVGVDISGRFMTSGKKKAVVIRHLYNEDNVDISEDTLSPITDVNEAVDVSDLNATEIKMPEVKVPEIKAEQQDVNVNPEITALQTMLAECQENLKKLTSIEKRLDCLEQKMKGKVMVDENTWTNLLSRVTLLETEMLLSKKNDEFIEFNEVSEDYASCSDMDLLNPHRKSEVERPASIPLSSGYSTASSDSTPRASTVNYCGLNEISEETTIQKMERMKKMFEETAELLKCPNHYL
Chain of UniProt Q9UK23 (Q9UK23 whole entry): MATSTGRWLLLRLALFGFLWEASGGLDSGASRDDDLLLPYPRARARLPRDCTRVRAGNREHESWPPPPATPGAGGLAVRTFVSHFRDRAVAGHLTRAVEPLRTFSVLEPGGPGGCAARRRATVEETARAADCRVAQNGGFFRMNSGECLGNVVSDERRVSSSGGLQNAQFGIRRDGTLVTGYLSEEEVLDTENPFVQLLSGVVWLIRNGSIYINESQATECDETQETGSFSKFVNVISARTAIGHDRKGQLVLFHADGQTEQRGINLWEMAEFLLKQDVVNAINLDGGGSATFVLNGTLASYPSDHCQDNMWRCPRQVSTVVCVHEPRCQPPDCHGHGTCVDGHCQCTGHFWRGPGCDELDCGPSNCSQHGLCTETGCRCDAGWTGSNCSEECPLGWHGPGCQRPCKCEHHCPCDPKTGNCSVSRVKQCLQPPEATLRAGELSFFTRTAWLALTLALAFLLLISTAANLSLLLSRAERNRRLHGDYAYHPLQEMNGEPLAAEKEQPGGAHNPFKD
Chain of UniProt Q8IYU8 (Q8IYU8 whole entry): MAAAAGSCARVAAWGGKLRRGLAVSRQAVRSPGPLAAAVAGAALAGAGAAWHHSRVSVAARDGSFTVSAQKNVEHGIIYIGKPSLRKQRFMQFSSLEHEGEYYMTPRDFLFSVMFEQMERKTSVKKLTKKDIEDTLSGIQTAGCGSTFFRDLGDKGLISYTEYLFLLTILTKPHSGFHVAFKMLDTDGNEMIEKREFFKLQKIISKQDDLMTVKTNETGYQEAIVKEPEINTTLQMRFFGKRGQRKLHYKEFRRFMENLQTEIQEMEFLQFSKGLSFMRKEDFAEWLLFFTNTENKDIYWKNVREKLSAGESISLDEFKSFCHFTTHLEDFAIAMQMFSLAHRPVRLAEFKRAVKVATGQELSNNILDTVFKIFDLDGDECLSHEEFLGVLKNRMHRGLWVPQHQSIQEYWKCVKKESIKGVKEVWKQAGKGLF
Chain of UniProt P50238 (P50238 whole entry): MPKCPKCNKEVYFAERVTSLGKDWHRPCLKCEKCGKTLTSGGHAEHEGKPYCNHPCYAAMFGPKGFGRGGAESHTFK

As for NAGPA (UniProt Q9UK23), the values for the thermal stability z-score in assay [1] (setting [3]), in assay [1] (arsenate co-treatment: none) and in assay [2] were -0.847, -0.928 and -1.05, respectively.
For the target SBNO1 (UniProt A3KN83), the thermal stability z-score in assay [1] (setting [3]) is 0.158; in assay [1] (arsenate co-treatment: none), 0.686; in assay [2], 0.146.
For SEC62 (UniProt Q99442), in that order: 0.39, 0.266 and -0.75.
Regarding MAEA (UniProt Q7L5Y9), the figures for the thermal stability z-score in assay [1] (setting [3]), in assay [1] (arsenate co-treatment: none) and in assay [2] were -0.402, -0.993 and -0.343, respectively.
For RBSN (UniProt Q9H1K0) the same measures were 0.0643, 0.16 and -0.113.
CALR (UniProt P27797): the thermal stability z-score was -4.25 in assay [1] (setting [3]), -3.48 in assay [1] (arsenate co-treatment: none) and 0.147 in assay [2].
With SIGMAR1 (UniProt Q99720), the thermal stability z-score in assay [1] (setting [3]) turned out to be 0.596; in assay [1] (arsenate co-treatment: none), 0.0865; in assay [2], 0.687.
For ING1 (UniProt Q9UK53), in that order: 1.11, 0.466 and -1.34.
For the target MAP4K4 (UniProt O95819), the figures for the thermal stability z-score in assay [1] (setting [3]), in assay [1] (arsenate co-treatment: none) and in assay [2] were -0.599, -0.0959 and 0.303, respectively.
For NFKB2 (UniProt Q00653) the same measures were -0.498, 0.158 and 0.523.
For MICU2 (UniProt Q8IYU8), in that order: -0.422, -0.315 and 0.583.
Consider TOM1L2 (UniProt Q6ZVM7), for which the thermal stability z-score in assay [1] (setting [3]) is -0.00565; in assay [1] (arsenate co-treatment: none), -0.0362; in assay [2], 0.0525.
On to CRIP1 (UniProt P50238), for which the thermal stability z-score came out at 1.49 in assay [1] (setting [3]), 1.68 in assay [1] (arsenate co-treatment: none) and 1.18 in assay [2].
For NAPA (UniProt P54920) the same measures were 0.374, 0.143 and 1.02.
Turning to CEP44 (UniProt Q9C0F1), the thermal stability z-score in assay [1] (setting [3]) came out at 0.18; in assay [1] (arsenate co-treatment: none), 0.0577; in assay [2], 0.0867.
For STXBP3 (UniProt O00186), in that order: 0.948, 0.942 and 0.223.
For MCM5 (UniProt P33992) the same measures were -0.676, -0.191 and 2.47.
For the target RBM19 (UniProt Q9Y4C8), the thermal stability z-score in assay [1] (setting [3]) turned out to be 0.0627; in assay [1] (arsenate co-treatment: none), 0.309; in assay [2] it was 0.649.
For EIF2B5 (UniProt Q13144), the results for the thermal stability z-score in assay [1] (setting [3]), in assay [1] (arsenate co-treatment: none) and in assay [2] were -0.392, 0.253 and 0.878, respectively.
For the target RPAP2 (UniProt Q8IXW5), the thermal stability z-score is -0.0831 in assay [1] (setting [3]), -0.0884 in assay [1] (arsenate co-treatment: none) and -0.0605 in assay [2].
With ARL6IP5 (UniProt O75915), the thermal stability z-score is -0.0796 in assay [1] (setting [3]), 0.285 in assay [1] (arsenate co-treatment: none) and -0.256 in assay [2].
Take VIM (UniProt P08670): the thermal stability z-score in assay [1] (setting [3]) was found to be 1.82; in assay [1] (arsenate co-treatment: none), 1.15; in assay [2], 0.432.
GPX1 (UniProt P07203): the thermal stability z-score in assay [1] (setting [3]) is 0.0953; in assay [1] (arsenate co-treatment: none), 0.0517; in assay [2], -0.087.

(Values after the supplement of paper PMC12463676, “Small-molecule dissolution of stress granules by redox modulation benefits ALS models” (Nature Chemical Biology, 2025).)
